The text below walks through data of patent US20150306096A1, “8'-HYDROXY-DIHYDROERGOTAMINE COMPOUNDS AND COMPOSITIONS” (MAP Pharmaceuticals, Inc., priority 2012, published 2015).

For series [1], the system named is NMDA (NR1/NR2A/NR2B/NR2C/NR2D). The experiment in a line: NMDA receptor Fluo-8 calcium FLIPR assay (agonist/antagonist). The format is cell-based, human. The note with it: NMDA receptors. Here is the method: (§1) Additional receptor agonist/agonist activity assessments were performed using the 8′-OH DHE test compound. Table 12 contains a summary of the cell lines (CHO-K1/HEK293 transfected with relevant human receptor) and the assays performed to detect any agonist or antagonist activity.
Studies for NMDA receptors (the NR1, NR2A, NR2B, NR2C and NR2D receptors) were conducted to monitor receptor activity of the test 8′-OH DHE compound using the Fluo-8 calcium kit and a Fluorescence Imaging Plate Reader (FLIPR^TETRA™) instrument. The following channels were evaluated: Cloned NMDA receptor (NR1/NR2A) channel (encoded by the GRIN1 and GRIN2A genes, co-expressed in HEK293 cells); Cloned NMDA receptor (NR1/NR2B) channel (encoded by the GRIN1 and GRIN2B genes, co-expressed in HEK293 cells); Cloned NMDA receptor (NR1/NR2C) channel (encoded by the GRIN1 and GRIN2C genes, co-expressed in HEK293 cells); and Cloned NMDA receptor (NR1/NR2D) channel (encoded by the GRIN1 and GRIN2D genes, transiently co-expressed in HEK293 cells).
For the agonist assessment, the effect of the test 8′-OH DHE compound was evaluated in the absence of the positive control agonist. The signal, elicited in the presence of the agonist (100 μM Glutamic acid+20 μM Glycine), was set to 100% activation and the signal in the presence of the vehicle control (Mg^2+-free HB-PS) was set to 0% activation. […]

The test system of series [2] is Purinergic (P2X1/P2X2/P2X3/P2X4/P2X7). The experiment in a line: Purinergic receptor QPatch patch clamp (agonist/antagonist). The format is cell-based, human. The note with it: P2X receptors, 30 and 100 μM. Here is the method: Purinergic receptor studies were conducted to monitor activity of 8′-OH DHE against the P2X1, P2X2, P2X3, P2X4 and P2X7 receptors. Human recombinant purinergic receptor-expressing HEK293 cells were used, and receptor activity was evaluated at RT using QPatch HT® (Sophion Bioscience A/S, Denmark) automatic parallel patch clamp system. The test 8′-OH DHE compound was evaluated in both agonist and antagonist modes at 30 and 100 μM. Each concentration was tested in triplicate.
On the technique in general: In patch-clamp work, channel activity is measured electrically.

The test system of series [3] is Calcitonin (AM1/AM2). As to the kind of experiment: cAMP HTRF assay. The format is cell-based, human. Here is the method:
as §1
Cells expressing the human recombinant receptor of interest were grown in media without antibiotic and detached by gentle flushing with PBS-EDTA (5 mM EDTA), recovered by centrifugation and resuspended in assay buffer (KRH: 5 mM KCl, 1.25 mM MgSO4, 124 mM NaCl, 25 mM HEPES, 13.3 mM glucose, 1.25 mM KH2PO4, 1.45 mM CaCl2, 0.5 g/L BSA). Dose response curves were performed in parallel with the reference compounds. For agonist tests (96-well plates), 12 μL of cells was mixed with 12 μL of the test 8′-OH DHE compound at increasing concentrations and then incubated for 30 minutes at RT. Lysis buffer was added and after one hour incubation, cAMP concentrations were determined according to the manufacturer specification with the HTRF kit. For antagonist tests (96-well plates), 12 μL of cells was mixed with 6 μL of the test 8′-OH DHE compound at increasing concentrations and then incubated for 10 minutes. […] Lysis buffer was added and after 1 hour incubation, cAMP concentrations were determined according to the manufacturer specification, with the HTRF kit. […]
(In general: TR-FRET usually uses a lanthanide donor and a delayed reading to cut background.)

Series [4] has as its target T1, OP2 (κ) (Homo sapiens, UniProt P41145).
T1 construct: expressed in transfected cells; host or cells: CHO-K1 (membrane extracts)
As to the kind of experiment: GTPγS assay. The note with it: antagonism. The format is biochemical. Here is the method:
as §1
Reagents used were the following: Assay buffer (20 mM HEPES, pH 7.4; 100 mM NaCl; 10 mg/mL saponin; 30 mM MgCl2); Membranes (recombinant human receptor membrane extracts were thawed on ice and diluted in assay buffer to give […] (10 μgμL) and kept on ice); GDP (diluted in assay buffer to give 30 μM solution (3 μM final concentration); beads (PVT-WGA (Amersham, RPNQ001), diluted in assay buffer at 25 mg/mL (0.25 mg/10 μL)); GTPγ^35S (Perkin Elmer, NEG030X), diluted in assay buffer to give 0.1 nM (final concentration); and ligand (agonist/antagonist diluted in assay buffer).
Membranes were mixed with GDP (1:1) and incubated for at least 15 minutes on ice. In parallel, GTPγ^35S was mixed with the beads (1:1) just before starting the reaction. […] The plates were then centrifuged for 10 minutes at 2,000 rpm and incubated at RT for 1 hour and counted for 1 min/well with a Perkin Elmer TopCount reader.

The conditions of series [5]: cited from earlier work.

SMILES strings stand for the structures. Read-outs that look alike come from different tables or passages of the source. Bounds are passed on as bounds.

T1 sequence (P41145 whole entry): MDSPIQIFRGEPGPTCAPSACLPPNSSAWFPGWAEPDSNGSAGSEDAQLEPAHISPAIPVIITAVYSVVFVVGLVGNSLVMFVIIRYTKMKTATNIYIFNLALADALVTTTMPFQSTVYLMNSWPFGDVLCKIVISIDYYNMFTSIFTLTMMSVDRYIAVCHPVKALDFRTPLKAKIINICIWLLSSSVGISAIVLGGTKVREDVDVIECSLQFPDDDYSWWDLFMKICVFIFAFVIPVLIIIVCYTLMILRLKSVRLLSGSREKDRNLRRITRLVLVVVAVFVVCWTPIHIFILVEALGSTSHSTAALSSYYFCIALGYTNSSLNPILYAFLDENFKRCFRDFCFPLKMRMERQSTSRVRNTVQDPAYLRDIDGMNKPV

The term IC50 denotes the midpoint of a concentration-inhibition curve. Low readings indicate inhibition by little substance, high ones a need for much substance. As to `CN1C[C@H](C(=O)N[C@]2(C)O[C@@]3(O)[C@@H]4CCC(O)N4C(=O)[C@H](Cc4ccccc4)N3C2=O)C[C@@H]2c3cccc4[nH]cc(c34)C[C@H]21` (some centres unmarked) [8′-OH DHE, 8′-Hydroxy-Dihydroergotamine], the “Activity (Agonism: EC50; Antagonism: IC50)” value in series [1], in series [2] and in series [3] was “Inactive” each time. In series [4], the concentration for half-maximal inhibition (IC50) was more than 1 µM.
For orientation: bioavailability means dose-corrected exposure relative to a reference, in per cent. Consider `CN1C[C@H](C(=O)N[C@]2(C)O[C@@]3(O)[C@@H]4CCCN4C(=O)[C@H](Cc4ccccc4)N3C2=O)C[C@@H]2c3cccc4[nH]cc(c34)C[C@H]21` [DHE, Dihydroergotamine], for which the “fraction of dose extracted in the urine” value in series [5] (IM administered dose) is recorded as 6-7%. For the same compound, the bioavailability in series [5] (IM) was 100%; in series [5] (IN administration), “about 40%”. Moreover, the oral bioavailability in series [5] (oral) is 1-3%.
